Reference: ChEMBL document CHEMBL1201862, “PubChem BioAssay data set” (2004)
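The compound was tested at five concentrations on cells cultured in 96-well plates, with a 48-hour exposure period. Here, GI50 denotes the concentration required for 50% inhibition of growth.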 The source made the active and inactive calls. Cut-off read from the data, not from the text of the source: active = GI50 up to about 1.1 µM and inactive = higher.

What was measured:
Experiment in all cases: NCI anticancer screen, dose series, 48 h
KM12 = test system: KM12
UACC-62 = test system: UACC-62
Hs-578T = test system: Hs-578T
CAKI-1 = test system: CAKI-1
OVCAR-5 = test system: OVCAR-5
BT-549 = test system: BT-549
LOX IMVI = test system: LOX IMVI
RXF 393 = test system: RXF 393
NCI-H226 = test system: NCI-H226
HCT-15 = test system: HCT-15
NCI-H522 = test system: NCI-H522
K562 = test system: K562
SK-MEL-2 = test system: SK-MEL-2
A549 = test system: A549
SK-OV-3 = test system: SK-OV-3
SF-268 = test system: SF-268
ACHN = test system: ACHN
MDA-MB-435 = test system: MDA-MB-435
T47D = test system: T47D

## CCOC(=O)/C(C[C@H]1OC(C)(C)O[C@@H]1[C@H]1COC(C)(C)O1)=N/O
KM12
  GI50: > 100 µM (inactive)
UACC-62
  GI50: > 100 µM (inactive)
Hs-578T
  GI50: > 100 µM (inactive)
CAKI-1
  GI50: > 100 µM (inactive)
OVCAR-5
  GI50: > 100 µM (inactive)
BT-549
  GI50: > 100 µM (inactive)
LOX IMVI
  GI50: > 100 µM (inactive)
RXF 393
  GI50: > 100 µM (inactive)
NCI-H226
  GI50: > 100 µM (inactive)
HCT-15
  GI50: > 100 µM
NCI-H522
  GI50: > 100 µM (inactive)
K562
  GI50: > 100 µM (inactive)
SK-MEL-2
  GI50: > 100 µM (inactive)
A549
  GI50: > 100 µM (inactive)
SK-OV-3
  GI50: > 100 µM (inactive)
SF-268
  GI50: > 100 µM (inactive)
ACHN
  GI50: > 100 µM (inactive)
MDA-MB-435
  GI50: > 100 µM (inactive)

## COc1c(OC(C)C)c(OC(C)C)c2oc(=O)n3c2c1C(c1ccccc1-n1c(C)ccc1C)C=C3 (stereo unspecified)
KM12
  GI50: 22.9 µM (inactive)
UACC-62
  GI50: 44.7 µM (inactive)
Hs-578T
  GI50: 18.5 µM (inactive)
CAKI-1
  GI50: > 100 µM (inactive)
OVCAR-5
  GI50: > 100 µM (inactive)
BT-549
  GI50: > 100 µM (inactive)
LOX IMVI
  GI50: 21.5 µM (inactive)
RXF 393
  GI50: 22 µM (inactive)
NCI-H226
  GI50: 17.1 µM (inactive)
HCT-15
  GI50: 61.8 µM
NCI-H522
  GI50: 26.7 µM (inactive)
K562
  GI50: > 100 µM (inactive)
SK-MEL-2
  GI50: 95.9 µM (inactive)
A549
  GI50: 39.4 µM (inactive)
SK-OV-3
  GI50: > 100 µM (inactive)
SF-268
  GI50: 38.1 µM (inactive)
ACHN
  GI50: 48.8 µM (inactive)
MDA-MB-435
  GI50: 35.2 µM (inactive)

## O=C(Cc1ccccc1)NNc1nc(NNC(=O)c2ccncc2)nc(Nc2ccc([N+](=O)[O-])cc2)n1
KM12
  GI50: > 10 µM (inactive)
UACC-62
  GI50: 9.38 µM (inactive)
Hs-578T
  GI50: > 10 µM (inactive)
CAKI-1
  GI50: > 10 µM (inactive)
OVCAR-5
  GI50: > 10 µM (inactive)
BT-549
  GI50: 9.51 µM (inactive)
LOX IMVI
  GI50: > 10 µM (inactive)
T47D
  GI50: > 10 µM (inactive)
HCT-15
  GI50: 6.22 µM
NCI-H522
  GI50: > 10 µM (inactive)
K562
  GI50: 6.19 µM (inactive)
A549
  GI50: > 10 µM (inactive)
SK-OV-3
  GI50: > 10 µM (inactive)
SF-268
  GI50: > 10 µM (inactive)
ACHN
  GI50: > 10 µM (inactive)
MDA-MB-435
  GI50: > 10 µM (inactive)

## COc1ccc(-c2nc(O)c3ccccc3n2)cc1OC
KM12
  GI50: > 100 µM (inactive)
UACC-62
  GI50: > 100 µM (inactive)
Hs-578T
  GI50: 29.2 µM (inactive)
CAKI-1
  GI50: > 100 µM (inactive)
OVCAR-5
  GI50: > 100 µM (inactive)
BT-549
  GI50: 64 µM (inactive)
T47D
  GI50: 30.3 µM (inactive)
RXF 393
  GI50: 26.4 µM (inactive)
NCI-H226
  GI50: 18.4 µM (inactive)
HCT-15
  GI50: 50 µM
K562
  GI50: > 100 µM (inactive)
SK-MEL-2
  GI50: 98.4 µM (inactive)
A549
  GI50: 94.4 µM (inactive)
SK-OV-3
  GI50: 34.2 µM (inactive)
SF-268
  GI50: 25.2 µM (inactive)
MDA-MB-435
  GI50: > 100 µM (inactive)

## SC1=NNC2(C(S)=N1)c1ccccc1-c1ccccc12
KM12
  GI50: > 10 µM (inactive)
UACC-62
  GI50: > 10 µM (inactive)
Hs-578T
  GI50: 0.394 µM (active)
CAKI-1
  GI50: > 10 µM (inactive)
BT-549
  GI50: > 10 µM (inactive)
LOX IMVI
  GI50: > 10 µM (inactive)
T47D
  GI50: 4.83 µM (inactive)
NCI-H226
  GI50: 8.81 µM (inactive)
HCT-15
  GI50: > 10 µM
K562
  GI50: > 10 µM (inactive)
A549
  GI50: > 10 µM (inactive)
SK-OV-3
  GI50: > 10 µM (inactive)
SF-268
  GI50: > 10 µM (inactive)

## COc1ccc(-c2cc(-c3ccc(Cl)cc3)n(C3OC(CO)C(O)C(O)C3O)c(=S)c2C#N)cc1 (stereo unspecified)
KM12
  GI50: 49.9 µM (inactive)
UACC-62
  GI50: > 100 µM (inactive)
Hs-578T
  GI50: > 100 µM (inactive)
OVCAR-5
  GI50: 33 µM (inactive)
BT-549
  GI50: 35.2 µM (inactive)
LOX IMVI
  GI50: > 100 µM (inactive)
T47D
  GI50: 29.2 µM (inactive)
HCT-15
  GI50: 38.5 µM
K562
  GI50: > 100 µM (inactive)
SK-MEL-2
  GI50: 26.9 µM (inactive)
SK-OV-3
  GI50: > 100 µM (inactive)
SF-268
  GI50: 20.6 µM (inactive)
ACHN
  GI50: > 100 µM (inactive)
MDA-MB-435
  GI50: 75.5 µM (inactive)

## O=c1c2cc([N+](=O)[O-])cnc2sn1-c1ccc(Oc2ccccc2)cc1
KM12
  GI50: 78.5 µM (inactive)
UACC-62
  GI50: 41.7 µM (inactive)
Hs-578T
  GI50: 18.6 µM (inactive)
OVCAR-5
  GI50: 58.3 µM (inactive)
BT-549
  GI50: 52.8 µM (inactive)
LOX IMVI
  GI50: 44.9 µM (inactive)
T47D
  GI50: 10.8 µM (inactive)
NCI-H226
  GI50: 45.2 µM (inactive)
HCT-15
  GI50: > 100 µM
NCI-H522
  GI50: 4.66 µM (inactive)
SK-MEL-2
  GI50: 26.7 µM (inactive)
A549
  GI50: > 100 µM (inactive)
SK-OV-3
  GI50: 19.8 µM (inactive)
SF-268
  GI50: 39.6 µM (inactive)
ACHN
  GI50: 53.1 µM (inactive)
MDA-MB-435
  GI50: 34 µM (inactive)
